Measurements reported in article PMC10959927, “Platinum iodido drugs show potential anti-tumor activity, affecting cancer cell metabolism and inducing ROS and senescence in gastrointestinal cancer cells” (Communications Biology, 2024).
Values joined by “and” are separate entries in the source; they are usually repeats but may differ in a detail not shown here. Equal values may be shown once. Read-outs that look alike come from different tables or passages of the source.

Assays:
AGS cells [1] = experiment: Cell viability, crystal violet staining; conditions: for Cell Viability without NAC: AGS cells, Fig. S6A; for IC50: read-out: IC50 concentration (± SD) at 48 h, 48 h
Description: (§1) Cell viability was assessed using a crystal violet-based staining method. […] The cells (2 × 10^5) were seeded in 24-multiwell dishes in 0.5 mL of complete medium and incubated overnight. […] After 48 h, cells were fixed with 1% glutaraldehyde (20–30 min), washed with distilled water, and stained with 0.1% crystal violet. […] IC50 were calculated by using GraphPad Prism (version 8.0). Nonlinear regression was used to fit the data to the log (inhibitor) versus response (variable slope).

MKN45 cells [2] = experiment: Cell viability, crystal violet staining; conditions: for Cell Viability without NAC: MKN45 cells, Fig. S6A; for IC50: read-out: IC50 concentration (± SD) at 48 h, 48 h
Description: as §1

PANC1 cells = experiment: Cell viability, crystal violet staining; conditions: for Cell Viability without NAC: PANC1 cells, Fig. S6A; for IC50: read-out: IC50 concentration (± SD) at 48 h, 48 h
Description: as §1

AGS cells [3] = experiment: Seahorse XF OCR, ECAR and energy map; assay type: cell-based, human
Description: (§2) Oxygen Consumption Rate (OCR), Extra Cellular Acidification Rate (ECAR) and Energy map measurements. Cells were plated in XF HS Miniplates (Seahorse Bioscience) at a cellular density of 1 × 10^4 cells/well and incubated overnight. […] After an OCR baseline measurement, the minimum oxygen consumption was determined by adding 1.5 µM oligomycin (O) and the maximal respiration rate was assessed by adding 1 µM carbonyl cyanide p-trifluoro methoxyphenylhydrazone (FCCP, F). At the end of the experiment, the non-mitochondrial oxygen consumption was evaluated by adding both 0.5 µM rotenone (R) and antimycin (A). Experiments were run in a XF HS Mini analyzer (Seahorse Agilent), and raw data were normalized to total protein using a BCA protein assay kit (Cat. no. 23225, Thermo Scientific).

MKN45 cells [4] = experiment: Seahorse XF OCR, ECAR and energy map; assay type: cell-based, human; parameters: Basal resp. / Maximal resp. / SRC: unit not given here
Description: as §2

In the case of `CC(C)[NH][Pt@SP1]([I])([I])[NH]C(C)C` [I6, cis-[PtI2(isopropylamine)2]], the IC25 concentration (AGS cells [1]; AGS) is reported as 15 µM, the “Cell Viability without NAC” value (AGS cells [1]; dose 10 µM) is reported as 105.035 and the “Cell Viability without NAC” value (AGS cells [1]; dose 50 µM) is reported as 68.1853. For the same molecule, the “Cell Viability without NAC” value (AGS cells [1]; dose 75 µM) was 30.4823, the IC50 (AGS cells [1]; AGS, NAC (+) 0.5 mM) was over 100 µM and the IC50 (AGS cells [1]; AGS, NAC (-)) was 50 µM and 51.5 µM. For the same molecule, the “Cell Viability without NAC” value (MKN45 cells [2]; dose 7.5 µM) was 99.1588 and 99.2583 and 108.83, the “Cell Viability without NAC” value (MKN45 cells [2]; dose 18.7 µM) was 103.308 and 97.338 and 102.412 and the “Cell Viability without NAC” value (MKN45 cells [2]; dose 37.4 µM) was 85.458 and 67.9963 and 88.4728. The “Cell Viability without NAC” value (MKN45 cells [2]; dose 56.1 µM) was 58.2655 and 42.2365 and 52.8031, the “Cell Viability without NAC” value (MKN45 cells [2]; dose 74.8 µM) was 41.9977 and 31.3714 and 39.5202 and the IC50 (MKN45 cells [2]; MKN45, NAC (+) 0.5 mM) was over 100 µM. The IC50 (MKN45 cells [2]; MKN45, NAC (-)) was 56.8 ± 1.53 µM, the “Cell Viability without NAC” value (PANC1 cells; dose 10 µM) was 77.9259 and 88.6605 and 70.8131 and the “Cell Viability without NAC” value (PANC1 cells; dose 25 µM) was 47.4239 and 33.5177 and 35.073. The “Cell Viability without NAC” value (PANC1 cells; dose 50 µM) was 47.9877 and 31.0793 and 43.6951, the IC50 (PANC1 cells; PANC1, NAC (+) 0.5 mM) was over 100 µM and the IC50 (PANC1 cells; PANC1, NAC (-)) was 20 µM and 18.8 µM. The “ECAR, Mean (energy map)” value (AGS cells [3]; AGS (with I5)) was 23.74 mpH/min/absorbance, the “OCR, Mean (energy map)” value (AGS cells [3]; AGS (with I5)) was 42.84 pmol/min/absorbance and the “ECAR (energy map)” value (AGS cells [3]; AGS (with I6)) was 45.46 mpH/min/absorbance. For the same molecule, the “ECAR, Mean (energy map)” value (AGS cells [3]; AGS (with I6)) was 48.0093 mpH/min/absorbance, the “OCR (energy map)” value (AGS cells [3]; AGS (with I6)) was 48.01 pmol/min/absorbance and the “OCR, Mean (energy map)” value (AGS cells [3]; AGS (with I6)) was 45.4641 pmol/min/absorbance. The “effect on ECAR” value (AGS cells [3]; AGS, IC50 24 h) was “no apparent effect”, the OCR (AGS cells [3]; AGS, IC50 24 h, time 1.53 min (I5) / 1.53 min (I6)) was 30.1319 pmoles/min/µg protein and 31.3797 pmoles/min/µg protein and 53.7109 pmoles/min/µg protein and the OCR (AGS cells [3]; AGS, IC50 24 h, time 8.04 min (I5) / 8.02 min (I6)) was 24.9329 pmoles/min/µg protein and 27.5046 pmoles/min/µg protein and 48.0298 pmoles/min/µg protein. For the same molecule, the OCR (AGS cells [3]; AGS, IC50 24 h, time 14.54 min (I5) / 14.51 min (I6)) was 26.4797 pmoles/min/µg protein and 27.4562 pmoles/min/µg protein and 48.9415 pmoles/min/µg protein, the OCR (AGS cells [3]; AGS, IC50 24 h, time 21.13 min (I5) / 21.08 min (I6)) was 22.9934 pmoles/min/µg protein and 21.9038 pmoles/min/µg protein and 30.7096 pmoles/min/µg protein and the OCR (AGS cells [3]; AGS, IC50 24 h, time 27.59 min (I5) / 27.57 min (I6)) was 20.5189 pmoles/min/µg protein and 20.6073 pmoles/min/µg protein and 30.1901 pmoles/min/µg protein. For the same molecule, the OCR (AGS cells [3]; AGS, IC50 24 h, time 34.07 min (I5) / 34.06 min (I6)) was 21.4481 pmoles/min/µg protein and 20.5528 pmoles/min/µg protein and 31.2982 pmoles/min/µg protein, the OCR (AGS cells [3]; AGS, IC50 24 h, time 60.15 min (I5) / 60.16 min (I6)) was 12.0701 pmoles/min/µg protein and 11.1961 pmoles/min/µg protein and 18.1823 pmoles/min/µg protein and the OCR (AGS cells [3]; AGS, IC50 24 h, time 66.63 min (I5) / 66.65 min (I6)) was 12.0579 pmoles/min/µg protein and 11.0677 pmoles/min/µg protein and 17.3668 pmoles/min/µg protein. For the same molecule, the OCR (AGS cells [3]; AGS, IC50 24 h, time 73.12 min (I5) / 73.14 min (I6)) was 11.7846 pmoles/min/µg protein and 9.533 pmoles/min/µg protein and 17.3382 pmoles/min/µg protein, the “ECAR, Mean (energy map)” value (MKN45 cells [4]; MKN45 (with I5)) was 17.85 mpH/min/absorbance and the “OCR, Mean (energy map)” value (MKN45 cells [4]; MKN45 (with I5)) was 73.36 pmol/min/absorbance. The “ECAR (energy map)” value (MKN45 cells [4]; MKN45 (with I6)) was 73.12 mpH/min/absorbance, the “ECAR, Mean (energy map)” value (MKN45 cells [4]; MKN45 (with I6)) was 230.729 mpH/min/absorbance and the “OCR (energy map)” value (MKN45 cells [4]; MKN45 (with I6)) was 230.7 pmol/min/absorbance. The “OCR, Mean (energy map)” value (MKN45 cells [4]; MKN45 (with I6)) was 73.1182 pmol/min/absorbance, the ATP-product. coupled resp. (MKN45 cells [4]; MKN45, IC50 24 h) was 104.06 and 161.5 and 167.13 and the Basal resp. (MKN45 cells [4]; MKN45, IC50 24 h) was 127.94 and 199.95 and 209.1. The Maximal resp. (MKN45 cells [4]; MKN45, IC50 24 h) was 239.39 and 365.62 and 377.71.
